The supplement of paper PMC10307832

What was measured:
Test in all cases: relative viability (nuclei count vs DMSO), 5 days (fraction); higher = more cells survive
[1] = compound: Cn1cc(-c2cnc3ccc4ccc(CS(=O)(=O)NCc5ccccn5)cc4c(=O)c3c2)cn1 [MK-8033] + Cc1nc(NC(=O)N2CCC[C@H]2C(N)=O)sc1-c1ccnc(C(C)(C)C(F)(F)F)c1 [Alpelisib] (partner 2 µM)
Procedure, shortened: (§1)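 Values are medians from duplicate plates. Each reflects relative viability, defined as the nuclei count of treated wells over that of vehicle wells. Lung cancer cell lines in 1536-well plates were pin-tool dosed one day after seeding with one drug alone or with a fixed anchor-drug dose plus five library-drug doses (not always all listed) in √10 steps, then fixed, stained and imaged at 4× after 5 days.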

[2] = compound: CCc1c2c(nc3ccc(OC(=O)N4CCC(N5CCCCC5)CC4)cc13)-c1cc3c(c(=O)n1C2)COC(=O)[C@]3(O)CC [Irinotecan] + Cc1cc(Nc2cc(N3CCN(C)CC3)nc(Sc3ccc(NC(=O)C4CC4)cc3)n2)n[nH]1 [Tozasertib] (partner 0.1 µM)
Procedure, shortened: as §1

[3] = compound: Cn1cc(-c2cnc3ccc4ccc(CS(=O)(=O)NCc5ccccn5)cc4c(=O)c3c2)cn1 [MK-8033] + CC(=O)c1c(C)c2cnc(Nc3ccc(N4CCNCC4)cn3)nc2n(C2CCCC2)c1=O [Palbociclib] (partner 0.5 µM)
Procedure, shortened: as §1

[4] = compound: Cn1cc(-c2cnc3ccc4ccc(CS(=O)(=O)NCc5ccccn5)cc4c(=O)c3c2)cn1 [MK-8033] + Nc1ncn([C@H]2C[C@H](O)[C@@H](CO)O2)c(=O)n1 [Decitabine] (partner 2 µM)
Procedure, shortened: as §1

| Cell Line | relative viability ([1]; first compound 0.02 µM) | relative viability ([1]; first compound 0.06325 µM) | relative viability ([1]; first compound 0.2 µM) | relative viability ([1]; first compound 0.6325 µM) | relative viability ([1]; first compound 2 µM) | relative viability ([2]; first compound 0.6325 µM) | relative viability ([2]; first compound 2 µM) | relative viability ([2]; first compound 6.325 µM) | relative viability ([2]; first compound 20 µM) | relative viability ([3]; first compound 0.02 µM) | relative viability ([3]; first compound 0.06325 µM) | relative viability ([3]; first compound 0.2 µM) | relative viability ([3]; first compound 0.6325 µM) | relative viability ([3]; first compound 2 µM) | relative viability ([4]; first compound 0.02 µM) | relative viability ([4]; first compound 0.06325 µM) | relative viability ([4]; first compound 0.2 µM) | relative viability ([4]; first compound 0.6325 µM) | relative viability ([4]; first compound 2 µM) |
| --- | --- | --- | --- | --- | --- | --- | --- | --- | --- | --- | --- | --- | --- | --- | --- | --- | --- | --- | --- |
| LK-2 | 1.22 | 1.04 | 1.02 | 1.17 | 1 | 0.183 | 0.192 | 0.287 | 0.352 | 0.623 | 0.528 | 0.686 | 0.885 | 0.502 | 0.299 | 0.3 | 0.322 | 0.339 | 0.343 |
| NCI-H1755 | 0.931 | 0.883 | 0.857 | 0.909 | 0.849 | 0.469 | 0.463 | 0.316 | 0.405 | 0.452 | 0.452 | 0.413 | 0.464 | 0.417 | 0.743 | 0.673 | 0.769 | 0.64 | 0.691 |
| LOU-NH91 | 0.727 | – | 0.69 | 0.702 | 0.699 | 0.568 | 0.533 | 0.358 | 0.222 | 0.495 | 0.523 | 0.512 | 0.531 | 0.53 | 0.792 | 0.662 | 0.789 | 0.789 | 0.813 |
| NCI-H1975 | 0.604 | 0.557 | 0.584 | 0.571 | 0.649 | 0.929 | 0.726 | 0.354 | 0.199 | 0.579 | 0.469 | 0.51 | 0.339 | 0.602 | 0.351 | 0.328 | 0.358 | 0.342 | 0.427 |
| NCI-H650 | 1.08 | 1.1 | 1.01 | 1.16 | 1.17 | 0.703 | 0.553 | 0.202 | 0.181 | 0.346 | 0.316 | 0.324 | 0.316 | 0.307 | 0.335 | 0.329 | 0.306 | 0.323 | 0.323 |
| SW 1573 | 0.817 | – | 0.698 | 0.687 | 0.719 | 0.152 | 0.311 | 0.183 | 0.155 | 0.373 | 0.392 | 0.345 | 0.409 | 0.389 | 0.528 | 0.467 | 0.524 | 0.502 | 0.474 |
| NCI-H441 | 0.853 | 0.643 | 0.648 | 0.709 | 0.67 | 0.497 | 0.443 | 0.374 | 0.295 | 0.182 | 0.189 | 0.217 | 0.275 | 0.238 | 0.237 | 0.237 | 0.231 | 0.264 | 0.238 |
| NCI-H1944 | 0.82 | – | 0.747 | 0.849 | 0.873 | 0.222 | 0.202 | 0.167 | 0.135 | 0.306 | 0.316 | 0.348 | 0.324 | 0.327 | 0.42 | 0.388 | 0.44 | 0.456 | 0.458 |
| NCI-H838 | 1 | 0.979 | 0.94 | 0.98 | 0.974 | 0.283 | 0.491 | 0.23 | 0.242 | 0.213 | 0.207 | 0.217 | 0.213 | 0.22 | 0.458 | 0.442 | 0.476 | 0.469 | 0.445 |
| NCI-H661 | 0.581 | 0.261 | 0.634 | 0.592 | 0.778 | 0.372 | 0.372 | 0.469 | 0.333 | 0.389 | 0.369 | 0.403 | 0.397 | 0.413 | 0.528 | 0.441 | 0.53 | 0.531 | 0.528 |
